Measured values published in publication PMC4178217, “Quinoline 3-sulfonamides inhibit lactate dehydrogenase A and reverse aerobic glycolysis in cancer cells” (Cancer & Metabolism, 2013).
Where two headings read alike, the source gives them in different places.

Experiments:
[1] = target: Lymphocyte-specific Tyrosine Kinase (Homo sapiens, UniProt P06239); assay: Lymphocyte-specific Tyrosine Kinase ANT; format: biochemical; conditions: antagonist; read-out: pIC50 Lymphocyte-specific Tyrosine Kinase ANT (converted)
Source text: (§1) ANT = antagonist (pIC50), AG = agonist (pEC50). pIC50 and pEC50 are the negative logarithms10 of IC50 and EC50, respectively. Click here for file

Snu398 cells = assay: Lactate production assay, Snu398 (RapidFire-MS); conditions: Homo sapiens, SNU-398, read-out: lactate production EC50
Serotonin Receptor 5HT2C [2] = target: T1, Serotonin Receptor 5HT2C (Homo sapiens, UniProt P28335); assay: Serotonin Receptor 5HT2C AG; conditions: agonist; read-out: pEC50 Serotonin Receptor 5HT2C AG (converted)
T1 sequence (P28335 33-458): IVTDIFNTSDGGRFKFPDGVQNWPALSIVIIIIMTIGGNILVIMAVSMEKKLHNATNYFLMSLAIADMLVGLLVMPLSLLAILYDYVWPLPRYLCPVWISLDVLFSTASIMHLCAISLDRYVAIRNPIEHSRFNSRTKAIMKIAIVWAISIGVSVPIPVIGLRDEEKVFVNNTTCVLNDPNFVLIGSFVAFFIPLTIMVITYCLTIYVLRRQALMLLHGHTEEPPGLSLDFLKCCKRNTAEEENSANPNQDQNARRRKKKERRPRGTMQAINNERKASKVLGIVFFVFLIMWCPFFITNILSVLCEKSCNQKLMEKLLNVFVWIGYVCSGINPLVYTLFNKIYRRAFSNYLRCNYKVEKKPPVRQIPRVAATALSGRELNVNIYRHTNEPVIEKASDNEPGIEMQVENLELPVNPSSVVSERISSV
Source text: as §1

Serotonin Receptor 5HT2C [3] = target: T1, Serotonin Receptor 5HT2C; assay: Serotonin Receptor 5HT2C ANT; conditions: antagonist; read-out: pIC50 Serotonin Receptor 5HT2C ANT (converted)
Source text: as §1

Opioid Receptor k = Opioid Receptor k (Homo sapiens, UniProt P41145); assay: Opioid Receptor k ANT; conditions: antagonist; read-out: pIC50 Opioid Receptor k ANT (converted)
Source text: as §1

Serotonin Receptor 5HT1B = Serotonin Receptor 5HT1B (Homo sapiens, UniProt P28222); assay: Serotonin Receptor 5HT1B ANT; conditions: antagonist; read-out: pIC50 Serotonin Receptor 5HT1B ANT (converted)
Source text: as §1

[4] = target: Nicotinic Ach Receptor A1 (Homo sapiens, UniProt P02708+P07510+Q07001); assay: Nicotinic Ach Receptor A1 ANT
Source text: as §1

[5] = target: Norepinephrin Transporter (Homo sapiens, UniProt P23975); assay: Norepinephrin Transporter ANT; conditions: antagonist; read-out: pIC50 Norepinephrin Transporter ANT (converted)
Source text: as §1

Monoamine Oxidase B = Monoamine Oxidase B (Homo sapiens, UniProt P27338); assay: Monoamine Oxidase B ANT; format: biochemical; conditions: antagonist; read-out: pIC50 Monoamine Oxidase B ANT (converted)
Source text: as §1

[6] = target: Phosphoinositide 3-kinase g (Homo sapiens, UniProt P48736); assay: Phosphoinositide 3-kinase g ANT; format: biochemical; conditions: antagonist; read-out: pIC50 Phosphoinositide 3-kinase g ANT (converted)
Source text: as §1

Sodium Channel NaV 1.5 = Sodium Channel NaV 1.5 (Homo sapiens, UniProt Q14524); assay: Sodium Channel NaV 1.5 ANT; conditions: antagonist; read-out: pIC50 Sodium Channel NaV 1.5 ANT (converted)
Source text: as §1

Adrenergic Receptor a1B = Adrenergic Receptor a1B (Homo sapiens, UniProt P35368); assay: Adrenergic Receptor a1B ANT
Source text: as §1

Adrenergic Receptor b2 [7] = target: T2, Adrenergic Receptor b2 (Homo sapiens, UniProt P07550); assay: Adrenergic Receptor b2 AG; conditions: agonist; read-out: pEC50 Adrenergic Receptor b2 AG (converted)
Source text: as §1

Serotonin Transporter = Serotonin Transporter (Homo sapiens, UniProt P31645); assay: Serotonin Transporter ANT; conditions: antagonist; read-out: pIC50 Serotonin Transporter ANT (converted)
Source text: as §1

Potassium Channel Kv1.5 = Potassium Channel Kv1.5 (Homo sapiens, UniProt P22460); assay: Potassium Channel Kv1.5 ANT; conditions: antagonist; read-out: pIC50 Potassium Channel Kv1.5 ANT (converted)
Source text: as §1

Muscarinic Receptor M2 [8] = target: T3, Muscarinic Receptor M2 (Homo sapiens, UniProt P08172); assay: Muscarinic Receptor M2 ANT; conditions: antagonist; read-out: pIC50 Muscarinic Receptor M2 ANT (converted)
T3 sequence (P08172 1-466): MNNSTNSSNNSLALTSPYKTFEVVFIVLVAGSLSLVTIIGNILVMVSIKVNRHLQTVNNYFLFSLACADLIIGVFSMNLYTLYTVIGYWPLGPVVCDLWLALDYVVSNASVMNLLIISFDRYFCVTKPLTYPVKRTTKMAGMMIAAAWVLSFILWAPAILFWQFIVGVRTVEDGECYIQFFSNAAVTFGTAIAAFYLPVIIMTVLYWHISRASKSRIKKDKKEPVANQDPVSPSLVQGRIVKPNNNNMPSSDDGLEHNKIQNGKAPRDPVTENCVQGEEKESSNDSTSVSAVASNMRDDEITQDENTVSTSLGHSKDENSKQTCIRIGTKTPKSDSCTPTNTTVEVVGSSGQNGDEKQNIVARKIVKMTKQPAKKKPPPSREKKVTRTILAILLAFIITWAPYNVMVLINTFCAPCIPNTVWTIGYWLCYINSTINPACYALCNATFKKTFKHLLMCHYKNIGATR
Source text: as §1

Opioid Receptor m = Opioid Receptor m (Homo sapiens, UniProt P35372); assay: Opioid Receptor m ANT; conditions: antagonist; read-out: pIC50 Opioid Receptor m ANT (converted)
Source text: as §1

Adrenergic Receptor b2 [9] = target: T2, Adrenergic Receptor b2; assay: Adrenergic Receptor b2 ANT; conditions: antagonist; read-out: pIC50 Adrenergic Receptor b2 ANT (converted)
Source text: as §1

Muscarinic Receptor M2 [10] = target: T3, Muscarinic Receptor M2; assay: Muscarinic Receptor M2 AG; conditions: agonist; read-out: pEC50 Muscarinic Receptor M2 AG (converted)
Source text: as §1

T2 sequence (P07550 whole entry): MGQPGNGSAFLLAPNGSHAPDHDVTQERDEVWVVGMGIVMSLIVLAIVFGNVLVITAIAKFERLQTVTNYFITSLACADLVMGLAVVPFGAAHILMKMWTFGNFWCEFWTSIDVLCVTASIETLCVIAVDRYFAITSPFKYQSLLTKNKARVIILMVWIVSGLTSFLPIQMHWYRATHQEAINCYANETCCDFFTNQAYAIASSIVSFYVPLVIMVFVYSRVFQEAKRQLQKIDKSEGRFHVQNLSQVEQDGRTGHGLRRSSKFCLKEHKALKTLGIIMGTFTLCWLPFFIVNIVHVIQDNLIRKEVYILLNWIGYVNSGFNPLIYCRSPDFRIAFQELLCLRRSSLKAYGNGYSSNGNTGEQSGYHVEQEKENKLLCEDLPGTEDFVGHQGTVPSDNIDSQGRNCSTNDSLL
Chain of Opioid Receptor m (P35372 whole entry): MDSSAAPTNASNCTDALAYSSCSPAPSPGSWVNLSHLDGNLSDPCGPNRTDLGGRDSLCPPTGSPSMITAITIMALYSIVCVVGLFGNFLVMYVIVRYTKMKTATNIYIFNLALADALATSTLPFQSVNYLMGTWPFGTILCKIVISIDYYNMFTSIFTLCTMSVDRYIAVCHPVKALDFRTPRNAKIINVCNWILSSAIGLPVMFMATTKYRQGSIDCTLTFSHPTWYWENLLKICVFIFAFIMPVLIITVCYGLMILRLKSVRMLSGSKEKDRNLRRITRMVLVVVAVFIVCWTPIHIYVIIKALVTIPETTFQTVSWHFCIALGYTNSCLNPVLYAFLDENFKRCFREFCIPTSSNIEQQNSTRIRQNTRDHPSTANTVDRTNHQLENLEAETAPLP
Chain of Nicotinic Ach Receptor A1 (P02708 21-457): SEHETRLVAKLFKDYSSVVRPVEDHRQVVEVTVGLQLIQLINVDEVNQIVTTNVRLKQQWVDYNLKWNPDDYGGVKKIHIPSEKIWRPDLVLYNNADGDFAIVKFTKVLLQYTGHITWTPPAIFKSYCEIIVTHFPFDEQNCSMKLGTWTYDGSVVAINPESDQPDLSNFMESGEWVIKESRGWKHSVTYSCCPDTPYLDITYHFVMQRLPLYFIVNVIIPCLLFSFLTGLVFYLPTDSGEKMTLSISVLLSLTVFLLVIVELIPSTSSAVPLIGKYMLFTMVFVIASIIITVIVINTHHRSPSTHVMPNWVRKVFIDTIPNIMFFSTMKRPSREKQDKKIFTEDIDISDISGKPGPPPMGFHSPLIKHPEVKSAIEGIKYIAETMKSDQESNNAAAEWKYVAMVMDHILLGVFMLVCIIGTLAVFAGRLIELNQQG
Chain of Nicotinic Ach Receptor A1 (P11230 24-501 partner): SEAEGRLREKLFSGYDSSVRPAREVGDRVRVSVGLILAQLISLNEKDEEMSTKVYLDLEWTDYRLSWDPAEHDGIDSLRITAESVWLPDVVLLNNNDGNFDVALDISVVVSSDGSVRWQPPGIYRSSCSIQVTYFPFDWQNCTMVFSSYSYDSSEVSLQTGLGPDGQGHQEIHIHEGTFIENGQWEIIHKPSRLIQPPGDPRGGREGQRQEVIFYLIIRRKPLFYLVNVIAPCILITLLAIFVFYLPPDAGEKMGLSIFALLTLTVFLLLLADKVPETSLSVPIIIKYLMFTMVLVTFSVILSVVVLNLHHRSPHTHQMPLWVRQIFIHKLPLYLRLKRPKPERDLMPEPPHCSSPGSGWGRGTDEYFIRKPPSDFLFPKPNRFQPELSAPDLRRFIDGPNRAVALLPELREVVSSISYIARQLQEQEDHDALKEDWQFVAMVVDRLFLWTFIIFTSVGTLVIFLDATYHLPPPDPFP
Chain of Nicotinic Ach Receptor A1 (Q07001 22-517): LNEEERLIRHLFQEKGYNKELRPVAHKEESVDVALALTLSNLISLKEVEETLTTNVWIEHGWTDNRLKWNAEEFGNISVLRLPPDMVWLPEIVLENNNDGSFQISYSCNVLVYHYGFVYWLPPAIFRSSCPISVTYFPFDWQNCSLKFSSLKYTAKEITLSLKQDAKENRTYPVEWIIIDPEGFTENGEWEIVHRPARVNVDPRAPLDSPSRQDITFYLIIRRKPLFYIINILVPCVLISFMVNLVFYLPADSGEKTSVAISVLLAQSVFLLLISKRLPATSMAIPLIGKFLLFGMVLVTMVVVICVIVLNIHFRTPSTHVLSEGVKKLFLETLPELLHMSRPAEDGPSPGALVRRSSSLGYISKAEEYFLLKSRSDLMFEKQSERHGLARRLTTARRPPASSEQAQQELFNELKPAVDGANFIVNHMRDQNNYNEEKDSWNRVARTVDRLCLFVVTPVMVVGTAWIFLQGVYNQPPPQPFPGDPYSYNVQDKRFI
Chain of Nicotinic Ach Receptor A1 (P07510 23-517): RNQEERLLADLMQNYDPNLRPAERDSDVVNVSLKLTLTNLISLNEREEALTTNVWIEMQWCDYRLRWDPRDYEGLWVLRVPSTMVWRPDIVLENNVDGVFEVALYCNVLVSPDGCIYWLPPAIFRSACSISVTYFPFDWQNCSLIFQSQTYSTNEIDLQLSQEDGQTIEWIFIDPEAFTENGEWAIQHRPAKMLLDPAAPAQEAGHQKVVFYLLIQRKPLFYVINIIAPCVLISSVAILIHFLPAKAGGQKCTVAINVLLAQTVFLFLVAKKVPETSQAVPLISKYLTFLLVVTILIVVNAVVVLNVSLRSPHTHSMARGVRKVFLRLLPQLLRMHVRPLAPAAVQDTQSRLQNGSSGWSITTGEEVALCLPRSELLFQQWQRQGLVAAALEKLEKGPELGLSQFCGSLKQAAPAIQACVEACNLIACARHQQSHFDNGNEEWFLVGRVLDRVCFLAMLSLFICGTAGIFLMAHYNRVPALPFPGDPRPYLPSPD
Chain of Serotonin Transporter (P31645 whole entry): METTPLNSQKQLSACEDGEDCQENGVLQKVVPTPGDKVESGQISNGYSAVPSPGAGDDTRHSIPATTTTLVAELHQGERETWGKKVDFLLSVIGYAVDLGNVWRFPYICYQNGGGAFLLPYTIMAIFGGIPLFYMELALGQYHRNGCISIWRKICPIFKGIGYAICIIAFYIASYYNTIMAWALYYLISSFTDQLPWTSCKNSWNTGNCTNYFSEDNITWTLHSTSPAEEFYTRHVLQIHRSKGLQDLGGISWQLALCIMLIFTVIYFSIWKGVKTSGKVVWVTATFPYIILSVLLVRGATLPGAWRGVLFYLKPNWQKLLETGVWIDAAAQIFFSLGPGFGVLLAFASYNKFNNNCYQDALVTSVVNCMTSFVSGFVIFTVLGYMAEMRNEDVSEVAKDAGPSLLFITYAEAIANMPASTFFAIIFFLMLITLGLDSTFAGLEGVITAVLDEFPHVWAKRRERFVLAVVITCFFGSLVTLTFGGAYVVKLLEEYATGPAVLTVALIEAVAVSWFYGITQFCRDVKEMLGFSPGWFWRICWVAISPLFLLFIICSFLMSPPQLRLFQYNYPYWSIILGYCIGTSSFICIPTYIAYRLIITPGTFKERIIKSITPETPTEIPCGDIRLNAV
Chain of Norepinephrin Transporter (P23975 whole entry): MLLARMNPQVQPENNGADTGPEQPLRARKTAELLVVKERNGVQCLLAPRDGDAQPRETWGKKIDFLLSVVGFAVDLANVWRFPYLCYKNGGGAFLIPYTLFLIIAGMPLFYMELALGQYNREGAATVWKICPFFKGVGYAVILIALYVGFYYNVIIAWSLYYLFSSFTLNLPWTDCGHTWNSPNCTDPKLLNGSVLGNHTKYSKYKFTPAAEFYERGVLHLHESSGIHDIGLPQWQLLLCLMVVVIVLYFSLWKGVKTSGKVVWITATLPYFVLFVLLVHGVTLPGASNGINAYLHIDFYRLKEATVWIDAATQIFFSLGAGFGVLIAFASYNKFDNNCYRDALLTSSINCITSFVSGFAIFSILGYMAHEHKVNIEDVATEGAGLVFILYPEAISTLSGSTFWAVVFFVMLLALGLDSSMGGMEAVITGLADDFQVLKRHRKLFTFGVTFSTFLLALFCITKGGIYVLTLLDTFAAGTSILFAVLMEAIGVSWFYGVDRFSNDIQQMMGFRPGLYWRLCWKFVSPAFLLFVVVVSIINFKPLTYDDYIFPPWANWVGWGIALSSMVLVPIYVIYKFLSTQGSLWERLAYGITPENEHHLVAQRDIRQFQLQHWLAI
Chain of Monoamine Oxidase B (P27338 whole entry): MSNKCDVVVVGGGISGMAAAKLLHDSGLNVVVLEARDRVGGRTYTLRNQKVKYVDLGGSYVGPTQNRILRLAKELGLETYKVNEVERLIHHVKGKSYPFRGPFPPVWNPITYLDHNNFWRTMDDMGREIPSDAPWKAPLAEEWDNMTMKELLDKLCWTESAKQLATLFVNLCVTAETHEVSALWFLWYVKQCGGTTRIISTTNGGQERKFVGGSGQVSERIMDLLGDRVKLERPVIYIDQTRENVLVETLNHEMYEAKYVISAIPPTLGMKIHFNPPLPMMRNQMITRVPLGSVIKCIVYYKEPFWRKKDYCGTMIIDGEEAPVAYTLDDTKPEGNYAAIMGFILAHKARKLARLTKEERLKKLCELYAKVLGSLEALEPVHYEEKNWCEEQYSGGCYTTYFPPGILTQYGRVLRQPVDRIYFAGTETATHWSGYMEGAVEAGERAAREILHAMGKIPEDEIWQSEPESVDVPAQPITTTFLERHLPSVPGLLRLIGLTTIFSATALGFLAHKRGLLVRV
Chain of Lymphocyte-specific Tyrosine Kinase (P06239 whole entry): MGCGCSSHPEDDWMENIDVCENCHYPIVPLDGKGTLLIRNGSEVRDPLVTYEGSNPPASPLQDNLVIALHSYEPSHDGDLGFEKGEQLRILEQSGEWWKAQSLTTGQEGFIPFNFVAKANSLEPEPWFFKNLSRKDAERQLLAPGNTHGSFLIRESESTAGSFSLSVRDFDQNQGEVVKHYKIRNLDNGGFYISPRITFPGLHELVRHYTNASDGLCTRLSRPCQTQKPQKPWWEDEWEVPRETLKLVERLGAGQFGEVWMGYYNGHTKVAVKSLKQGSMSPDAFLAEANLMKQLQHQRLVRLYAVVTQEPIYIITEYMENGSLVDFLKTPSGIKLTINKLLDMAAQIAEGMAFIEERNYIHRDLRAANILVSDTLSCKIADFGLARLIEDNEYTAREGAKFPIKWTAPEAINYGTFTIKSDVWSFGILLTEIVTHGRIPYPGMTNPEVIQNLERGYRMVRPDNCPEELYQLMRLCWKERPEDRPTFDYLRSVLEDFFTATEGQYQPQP

## COc1ncc(-c2ccc3c(Nc4cc(Oc5cc(F)cc(F)c5)cc(C(=O)O)c4)c(S(=O)(=O)NC4CC4)cnc3c2)c(OC)n1 [Compound 1]
[1]
  IC50: 31.6 µM
Snu398 cells
  EC50: 400 ± 100 nM
Serotonin Receptor 5HT2C [2]
  EC50: 39.8 µM
Serotonin Receptor 5HT2C [3]
  IC50: 39.8 µM
Opioid Receptor k
  IC50: 31.6 µM
Serotonin Receptor 5HT1B
  IC50: 31.6 µM
[4]
  IC50: 50.1 µM
[5]
  IC50: 100 µM
Monoamine Oxidase B
  IC50: 6.31 µM
[6]
  IC50: 31.6 µM
Sodium Channel NaV 1.5
  IC50: 100 µM
Adrenergic Receptor a1B
  IC50: 12.6 µM
Adrenergic Receptor b2 [7]
  EC50: 31.6 µM
Serotonin Transporter
  IC50: 100 µM
Potassium Channel Kv1.5
  IC50: 50.1 µM
Muscarinic Receptor M2 [8]
  IC50: 15.8 µM
Opioid Receptor m
  IC50: 63.1 µM
Adrenergic Receptor b2 [9]
  IC50: 31.6 µM
Muscarinic Receptor M2 [10]
  EC50: 15.8 µM

## COc1ncc(-c2ccc3c(Nc4cc(C(=O)O)cc(C5CCCC5)c4)c(S(=O)(=O)NC4CC4)cnc3c2)c(OC)n1 [Compound 2]
[1]
  IC50: 31.6 µM
Snu398 cells
  EC50: 600 ± 200 nM
Serotonin Receptor 5HT2C [2]
  EC50: 39.8 µM
Serotonin Receptor 5HT2C [3]
  IC50: 39.8 µM
Opioid Receptor k
  IC50: 50.1 µM
Serotonin Receptor 5HT1B
  IC50: 31.6 µM
[4]; antagonist, read-out: pIC50 Nicotinic Ach Receptor A1 ANT (converted)
  IC50: 15.8 µM
[5]
  IC50: 100 µM
Monoamine Oxidase B
  IC50: 15.8 µM
[6]
  IC50: 31.6 µM
Sodium Channel NaV 1.5
  IC50: 39.8 µM
Adrenergic Receptor a1B; antagonist, read-out: pIC50 Adrenergic Receptor a1B ANT (converted)
  IC50: 31.6 µM
Adrenergic Receptor b2 [7]
  EC50: 31.6 µM
Serotonin Transporter
  IC50: 100 µM
Potassium Channel Kv1.5
  IC50: 50.1 µM
Muscarinic Receptor M2 [8]
  IC50: 15.8 µM
Opioid Receptor m
  IC50: 31.6 µM
Adrenergic Receptor b2 [9]
  IC50: 31.6 µM
Muscarinic Receptor M2 [10]
  EC50: 15.8 µM
